Data from patent US4808596A, “Imidazo[4,5-b]pyridine compounds and pharmaceutical compositions containing same” (Tokyo Tanabe Company, Ltd., priority 1986, dated 1989).

Experiments:
Shay's ulcer = assay: Inhibitory effect on Shay's ulcer; format: in vivo, male Wistar rats; settings: Rattus norvegicus; oral, rats; 30 minutes before ligation; 14 hours; read-out: Inhibitory effect on Shay's ulcer, ID50
Experimental: (§1) The inhibitory effects of the present compounds [I] on various experimental ulcers were tested by using male Wistar rats, weighing about 200 g, in groups of six and determining the respective ulceration indexes for 5 types of experimental ulcers. In each test, the test compounds were suspended in a 0.5% aqueous solution of carboxymethyl cellulose and administered orally in a series of appropriately selected doses ranging from 1 to 100 mg/kg. The test procedures for 5 types of experimental ulcers were as follows:
In rats which had been fasted for 48 hours, the pyloric end of the stomach was ligated and they were maintained for 14 hours without giving any food or water. Then, each rat was sacrificed and the area of the ulcer(s) formed in the forestomach part was measured. The ulceration index was calculated on the basis of the data thus obtained. The test compounds were administered 30 minutes before ligation.
(§2) The pharmacological effect of the test compounds on each of the aforesaid experimental ulcers was evaluated on the basis of the dose (in mg/kg) required to inhibit the formation of ulcers by 50% (hereinafter referred to as ID50). The ID50 value of each test compound was determined by calculating the difference in ulceration index between the untreated group and each treated group, dividing the difference by the ulceration index of the untreated group to obtain the degree of inhibition, and constructing a dose-response curve on the basis of the data thus obtained. For purposes of comparison, the ID50 values of Omeprazole and Compounds α and β were determined in the same manner as described above and are also shown in Table 4.

Indomethacin ulcer = assay: Inhibitory effect on indomethacin ulcer; format: in vivo, male Wistar rats; settings: Rattus norvegicus; oral, rats; 30 minutes before indomethacin 25 mg/kg s.c.; 7 hours; read-out: Inhibitory effect on Indomethacin ulcer, ID50
Experimental: as §1
To rats which had been fasted for 24 hours, indomethacin was subcutaneously administered in a dose of 25 mg/kg. After 7 hours, each rat was sacrificed and the length of the ulcer(s) formed in the glandular stomach part was measured. The ulceration index was calculated on the basis of the data thus obtained. The test compounds were administered 30 minutes before administration of indomethacin.
as §2

[1] = Acute toxicity test (LD50); settings: rat, in vivo, rats
Experimental: The acute toxicity (LD50) of several typical examples of the present compounds [I] (i.e., the compounds of Examples 1, 8, 13, 19, 24, 26 and 33) was tested with 5-weeks-old male Wistar rats. […] When Omeprazole was administered orally, its LD50 value was greater than 4000 mg/kg.

[2] = test system: Water-immersion stress ulcer; assay: Inhibitory effect on water-immersion stress ulcer; format: in vivo, male Wistar rats; settings: Rattus norvegicus; oral, rats; 10 minutes before exposure to the stress; 10 hours; read-out: Inhibitory effect on Water-immersion stress ulcer, ID50
Experimental: as §1
Rats which had been fasted for 15 hours were immobilized in stress cages and immersed chest-deep in a water bath at 21° C. After 10 hours, each rat was sacrificed and the length of the ulcer(s) formed in the glandular stomach part was measured. The ulceration index was calculated on the basis of the data thus obtained. The test compounds were administered 10 minutes before exposure to the stress.
as §2

Aspirin ulcer = assay: Inhibitory effect on aspirin ulcer; format: in vivo, male Wistar rats; settings: Rattus norvegicus; oral, rats; 30 minutes before ligation; aspirin 150 mg/kg; 7 hours; read-out: Inhibitory effect on Aspirin ulcer, ID50
Experimental: as §1
In rats which had been fasted for 24 hours, the pyloric end of the stomach was ligated. After 5 minutes, aspirin was orally administered thereto in a dose of 150 mg/kg. Seven hours after ligation, each rat was sacrificed and the length of the ulcer(s) formed in the glandular stomach part was measured. The ulceration index was calculated on the basis of the data thus obtained. The test compounds were administered 30 minutes before ligation.
as §2

[3] = test system: Hydrochloric acid-ethanol ulcer; assay: Inhibitory effect on hydrochloric acid-ethanol ulcer; format: in vivo, male Wistar rats; settings: Rattus norvegicus; oral, rats; 30 minutes before hydrochloric acid-ethanol; 1 hour; read-out: Inhibitory effect on Hydrochloric acid-ethanol ulcer, ID50
Experimental: as §1
To rats which had been fasted for 24 hours, a 150 mM hydrochloric acid-60% ethanol mixture was orally administered in an amount of 0.5 ml per 100 g of body weight. After an hour, each rat was sacrificed and the length of the ulcer(s) formed in the glandular stomach part was measured. The ulceration index was calculated on the basis of the data thus obtained. The test compounds were administered 30 minutes before administration of the hydrochloric acid-ethanol mixture.
as §2

(H^+ +K^+) ATPase = biological target: T1, (H^+ +K^+) ATPase (Sus scrofa, UniProt P19156); assay: Inhibitory effect on (H^+ +K^+) ATPase; format: biochemical, hog; settings: in vitro; for inhibition at 1000 µM: at 1 × 10^-3 M, read-out: Degree of inhibition, Inhibitory effect on (H^+ + K^+) ATPase
T1 construct: prepared from fresh pieces of the fundus ventriculi of hog stomach; from tissue; host or cells: hog stomach, fundus ventriculi (fresh pieces), prepared by the method of Saccomani et al., J. Biol. Chem. 1976
T1 sequence (P19156 2-1034 limits assumed): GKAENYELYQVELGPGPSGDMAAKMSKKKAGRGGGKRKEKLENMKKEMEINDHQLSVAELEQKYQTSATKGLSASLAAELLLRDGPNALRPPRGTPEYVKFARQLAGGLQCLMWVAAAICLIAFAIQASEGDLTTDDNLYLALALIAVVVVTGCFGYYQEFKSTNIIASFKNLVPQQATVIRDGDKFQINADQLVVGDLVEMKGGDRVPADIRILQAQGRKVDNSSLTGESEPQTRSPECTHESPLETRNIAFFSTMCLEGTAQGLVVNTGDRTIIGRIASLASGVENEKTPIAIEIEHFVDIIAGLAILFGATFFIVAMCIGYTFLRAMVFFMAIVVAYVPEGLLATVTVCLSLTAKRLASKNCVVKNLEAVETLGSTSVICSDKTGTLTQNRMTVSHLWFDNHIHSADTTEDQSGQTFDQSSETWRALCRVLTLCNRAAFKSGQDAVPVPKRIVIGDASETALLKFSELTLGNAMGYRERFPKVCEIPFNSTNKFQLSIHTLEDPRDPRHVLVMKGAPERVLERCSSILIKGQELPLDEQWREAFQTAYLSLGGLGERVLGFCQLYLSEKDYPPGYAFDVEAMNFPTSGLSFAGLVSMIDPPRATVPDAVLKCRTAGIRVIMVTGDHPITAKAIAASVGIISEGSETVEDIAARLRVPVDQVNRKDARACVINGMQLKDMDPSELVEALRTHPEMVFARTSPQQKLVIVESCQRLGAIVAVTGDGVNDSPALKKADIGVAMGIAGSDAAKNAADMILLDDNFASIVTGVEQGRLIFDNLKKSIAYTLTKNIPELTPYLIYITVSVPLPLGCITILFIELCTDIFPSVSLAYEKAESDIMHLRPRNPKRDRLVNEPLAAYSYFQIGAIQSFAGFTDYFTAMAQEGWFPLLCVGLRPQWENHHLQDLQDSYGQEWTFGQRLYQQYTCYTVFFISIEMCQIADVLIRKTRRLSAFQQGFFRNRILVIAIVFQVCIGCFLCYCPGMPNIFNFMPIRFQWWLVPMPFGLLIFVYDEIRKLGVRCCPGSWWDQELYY
T1 sequence (P18434 whole entry partner): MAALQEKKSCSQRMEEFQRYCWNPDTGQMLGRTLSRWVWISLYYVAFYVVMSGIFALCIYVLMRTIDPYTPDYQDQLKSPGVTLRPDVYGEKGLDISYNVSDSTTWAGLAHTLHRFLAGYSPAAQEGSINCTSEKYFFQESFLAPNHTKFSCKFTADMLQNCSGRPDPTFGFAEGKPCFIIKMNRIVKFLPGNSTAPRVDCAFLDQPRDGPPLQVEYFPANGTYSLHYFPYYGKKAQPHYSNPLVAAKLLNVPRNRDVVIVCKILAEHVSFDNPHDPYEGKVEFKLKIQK
Experimental: The inhibitory effect of the present compounds [I] on (H^+ +K^+) ATPase was tested by adding each test compound to a solution containing 300-500 μg, on a protein basis, of the enzyme, incubating this reaction mixture at 35°-37° C. for 5-30 minutes, and then determining the residual activity of (H^+ +K^+) ATPase present in the reaction mixture. The test compounds were dissolved in methanol or ethanol in advance and added to the reaction system in such an amount as to give a concentration of 1×10^-3 M. The (H^+ +K^+) ATPase used in this test was prepared from fresh pieces of the fundus ventriculi of hog stomach according to the method of Saccomani et al. (The Journal of Biological Chemistry, Vol. 251, No. 23, p. 7690, 1976). The residual activity of (H^+ +K^+) ATPase was determined by mixing magnesium chloride and potassium chloride with the incubated reaction mixture, adding adenosine triphosphate thereto, incubating this assay mixture 37° C. for 5-15 minutes to effect an enzymic reaction, and colorimetrically determining the liberated inorganic phosphate by use of an ammonium molybdate reagent. The initial concentrations of magnesium chloride, potassium chloride and adenosine triphosphate were adjusted to 2 mM, 20 mM and 2 mM, respectively. Colorimetric determinations were made at a wavelength of 360-400 nm. As a control experiment, the residual activity of (H^+ +K^+) ATPase was determined by repeating the above-described procedure without adding any test compound to the reaction system. In this table, the inhibitory effect is indicated by the degree of inhibition which was obtained by calculating the difference between the measured value obtained in the control experiment and the measured value resulting from the addition of each test compound and expressing this difference as a percentage of the measured value obtained in the control experiment. For purposes of comparison, the inhibitory effect of Omeprazole and Compounds α and β on (H^+ +K^+) ATPase was tested in the same manner as described above and the results thus obtained are also shown in Table 2.

[4] = ip, intraperitoneal administration

Row | SMILES | ED50 (Shay's ulcer) [mg/kg] | ED50 (Indomethacin ulcer) [mg/kg] | LD50 ([1]; oral administration) [mg/kg] | ED50 [2] [mg/kg] | ED50 (Aspirin ulcer) [mg/kg] | ED50 [3] [mg/kg] | inhibition at 1000 µM ((H^+ +K^+) ATPase) [%] | LD50 [1, 4] [mg/kg] | inhibitory effect on (H^+ +K^+) ATPase (in words) ((H^+ +K^+) ATPase)
1 | COc1ccc2[nH]c([S+]([O-])Cc3ncc(C)c(OC)c3C)nc2c1 (stereo not drawn) [Omeprazole, reference compound] | 30.3 | 24.7 | > 4000 | 39.7 | 17.2 | 13.6 | 38.7 | – | –
2 | CCCCCCCOc1ccc2[nH]c([S+]([O-])Cc3ncc(C)cc3C)nc2n1 (stereo not drawn) [Example 33, 2-[2-(3,5-Dimethyl)pyridylmethylsulfinyl]-5-n-heptyloxyimidazo[4,5-b]pyridine] | 19.2 | 23.2 | > 4000 | 35.1 | 12.6 | 10.3 | 95.4 | > 500 | –
3 | COc1c(C)cnc(C[S+]([O-])c2nc3nc(OCC4CC4)ccc3[nH]2)c1C (stereo not drawn) [Example 24, 2-[2-(3,5-Dimethyl-4-methoxy)pyridylmethylsulfinyl]-5-cyclopropylmethyloxyimidazo[4,5-b]pyridine] | 10.8 | 13.1 | > 4000 | 27 | 5.4 | 3.5 | 100 | > 500 | –
4 | CCOc1ccc2[nH]c([S+]([O-])Cc3ncc(C)c(C)c3C)nc2n1 (stereo not drawn) [Example 8, 2-[2-(3,4,5-Trimethyl)pyridylmethylsulfinyl]-5-ethoxyimidazo[4,5-b]pyridine] | 15.1 | 18.8 | > 4000 | 34.2 | 10.7 | 8.2 | 100 | > 500 | –
5 | COc1c(C)cnc(C[S+]([O-])c2nc3ncc(Br)cc3[nH]2)c1C (stereo not drawn) [Compound α, 2-[2-(3,5-dimethyl-4-methoxy)pyridylmethylsulfinyl]-6-bromoimidazo[4,5-b]pyridine, reference compound] | ≥ 100 | 78.4 | – | ≥ 100 | ≥ 100 | 63.3 | 100 | – | marked inhibitor effect
6 | COc1ccc2[nH]c([S+]([O-])Cc3ncc(C)cc3C)nc2n1 (stereo not drawn) [Example 1, 2-[2-(3,5-Dimethyl)pyridylmethylsulfinyl]-5-methoxyimidazo[4,5-b]pyridine] | 11 | 12.9 | > 4000 | 26.4 | 6.3 | 5.1 | 100 | > 500 | –
7 | COc1c(C)cnc(C[S+]([O-])c2nc3nc(OCC(F)(F)F)ccc3[nH]2)c1C (stereo not drawn) [Example 26, 2-[2-(3,5-Dimethyl-4-methoxy)pyridylmethylsulfinyl]-5-(2,2,2-trifluoroethoxy)imidazo[4,5-b]pyridine] | 14.7 | 15.8 | > 4000 | 30.5 | 9.5 | 7.9 | 100 | > 500 | –
8 | COc1cc(C[S+]([O-])c2nc3nc(OCC4CC4)ccc3[nH]2)ncc1C (stereo not drawn) [Example 13, 2-[2-(4-Methoxy-5-methyl)pyridylmethylsulfinyl]-5-cyclopropylmethyloxyimidazo[4,5-b]pyridine] | 17.4 | 21.9 | > 4000 | 37.3 | 14.5 | 9.6 | 87.4 | > 500 | –
9 | COc1c(C)cnc(C[S+]([O-])c2nc3ncc(C)cc3[nH]2)c1C (stereo not drawn) [Compound β, 2-[2-(3,5-dimethyl-4-methoxy)pyridylmethylsulfinyl]-6-methylimidazo[4,5-b]-pyridine, reference compound] | 42 | 29.5 | – | 63.3 | 23.8 | 25.4 | 100 | – | marked inhibitor effect
